Laboratory results: patent publication US9580426B2, “Compounds that expand hematopoietic stem cells” (Novartis AG, priority 2008, dated 2017)

What was measured:
mPB-derived CD34+ cell = assay: 7 day culture with AHR antagonists, expansion of CD34+ cells; format: cell-based, human; conditions: 0.75 μM; 7 days
Experimental: To further explore the role of AHR signaling in HSCs two other AHR antagonists (alpha-naphthoflavone and CH-223191) were tested. Both compounds lead to dose dependent increases in the number of CD34^+ cells when cultured with mPB-derived CD34^+ cell for 7 days: inclusion of 1 μM CH223191 afforded a 2.2-fold expansion of CD34^+ cells; 0.75 μM α-naphthoflavone afforded a 1.9-fold expansion of CD34^+ cells while 0.75 μM Example 1 afforded a 3.4-fold expansion of total CD34^+ cells. […] Forty-eight hours following transduction, CD34+GFP^+ cells were purified by cell sorting and the levels of AHR were determined by qPCR. Both AHR targeting shRNAs led to decreases in AHR expression following transduction (81% with sh111 and 51% with sh242). These decreases were not seen in cells lacking GFP or in cells transduced with control virus.

[1] = system: Primary adult CD34+ human hematopoietic stem cells (HSCs); assay: % CD34+ assay: HSC expansion screen, dose response; format: cell-based; conditions: Homo sapiens, Hematopoietic stem cell; dose response 1 nM to 10 μM; total number and/or percent of CD34+ cells
Procedure, shortened: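 Human CD34+ cells, chiefly MACS-enriched from G-CSF-mobilized peripheral blood, were grown at 37° C., 5% CO2 in serum-free StemSpan with TPO, IL-6, Flt-3 ligand and SCF (50 ng/mL each), plus compound or DMSO. Cultures were kept at 10^4–5×10^5 cells/mL and assessed by flow cytometry for CD34 expression. EC50 came from a 1 nM–10 μM dose response.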

mPB CD34+ HSCs = assay: Cobblestone area-forming cell (CAFC) assay; format: cell-based, human; conditions: 1 micromolar; mPB CD34+ HSCs after 5 days of culture
Experimental: Cobblestone area-forming cell (CAFC) assays: The FBMD-1 stromal cells are maintained in 25-cm^2 flasks and are trypsinized after ⅓ confluence. Since this non-transformed line ages, and therefore gradually loses its potential to support CAFC growth at late stages, all feeders are used below passage 20. For supporting CAFC growth in 96-well plates, 1×10^3 stromal cells are seeded per well. The cultures are maintained in Iscove's medium supplemented with 10% fetal calf serum (FCS), 2.5% horse serum (HS), 1% L-glutamine, 1% penicillin-streptomycin, and 1×10^−5 M hydrocortisone at 37° C. in a humidified atmosphere of 5% CO2 in air. After stromal layers reach confluency, they are inoculated with CD34^+ HSCs that have been cultured for 5 days with vehicle or a compound of the invention. MNCs are added at 8 serial 1:3 dilutions (starting at 25,000 cells/well), with 10 wells for each cell dose. The dilutions with wells with at least one phase-dark hematopoietic clone (cobblestone area) of at least five cells beneath the stromal layer are determined at week 4. […]

murine HSC = assay: Activity on murine HSC; format: cell-based

CC(C)n1cnc2c(NCCc3ccc(O)cc3)nc(-c3csc4ccccc34)nc21 [Example 1, 4-(2-(2-(benzo[b]thiophen-3-yl)-9-isopropyl-9H-purin-6-ylamino)ethyl)phenol]
expansion of CD34+ cells (mPB-derived CD34+ cell): 3.4 fold | EC50 [1]: 0.12 µM | increase in the number of cobblestone area forming cells compared with DMSO control (mPB CD34+ HSCs): greater than 2 fold | activity on murine HSC (murine HSC): lack of activity
